Results as given in patent US9084770B2, “Modulation of insulin like growth factor I receptor expression in cancer” (Antisense Therapeutics, Ltd., priority 2008, dated 2015).

What follows are substances tested on human IGF-IR mRNA (assay: Antisense inhibition of human IGF-IR mRNA levels by quantitative RT-PCR (Table 1)). Details: quantitative RT-PCR; averages from 3 experiments.
Type: cell-based
Design: %INHIB (human IGF-IR mRNA levels): concentration or dose not given beside the values
From the text: Treatment of A549 cell cultures with oligonucleotides targeting IGF-IR is as described in WO 2004/072284.
Quantitation of IGF-IR mRNA levels was accomplished by RT-PCR using the ABI PRISM (trademark) 7600, 7700, or 7900 Sequence Detection System (PE-Applied Biosystems, Foster City, Calif.) according to manufacturer's instructions. This is a closed-tube, non-gel-based, fluorescence detection system which allows high-throughput quantitation of PCR products in real-time. As opposed to standard PCR in which amplification products are quantitated after the PCR is completed, products in real-time quantitative PCR are quantitated as they accumulate. This is accomplished by including in the PCR reaction an oligonucleotide probe that anneals specifically between the forward and reverse PCR primers, and contains two fluorescent dyes. A reporter dye (e.g., FAM or JOE, obtained from either PE-Applied Biosystems, Foster City, Calif., Operon Technologies Inc., Alameda, Calif. or Integrated DNA Technologies Inc., Coralville, Iowa) is attached to the 5′-end of the probe and a quencher dye (e.g., TAMRA, obtained from either PE-Applied Biosystems, Foster City, Calif., Operon Technologies Inc., Alameda, Calif. or Integrated DNA Technologies Inc., Coralville, Iowa) is attached to the 3′-end of the probe. When the probe and dyes are intact, reporter dye emission is quenched by the proximity of the 3′ quencher dye. During amplification, annealing of the probe to the target sequence creates a substrate that can be cleaved by the 5′-exonuclease activity of Taq polymerase. […] With each cycle, additional reporter dye molecules are cleaved from their respective probes, and the fluorescence intensity is monitored at regular intervals by laser optics built into the ABI PRISM (trademark) Sequence Detection System. In each assay, a series of parallel reactions containing serial dilutions of mRNA from untreated control samples generates a standard curve that is used to quantitate the percent inhibition after antisense oligonucleotide treatment of test samples.
PCR reagents were obtained from Invitrogen Corporation, (Carlsbad, Calif.). RT-PCR reactions were carried out by adding 20 μL PCR cocktail (2.5×PCR buffer minus MgCl2, 6.6 mM MgCl2, 375 μM each of dATP, dCTP, […] and dGTP, 375 nM each of forward primer and reverse primer, 125 nM of probe, 4 Units RNAse inhibitor, 1.25 Units PLATINUM (registered trademark) Taq, 5 Units MuLV reverse transcriptase, and 2.5×ROX dye) to 96-well plates containing 30 μL total RNA solution (20-200 ng). The RT reaction was carried out by incubation for 30 minutes at 48° C. Following a 10 minute incubation at 95° C. to activate the PLATINUM (trademark) Taq, 40 cycles of a two-step PCR protocol were carried out: 95° C. for 15 seconds (denaturation) followed by 60° C. for 1.5 minutes (annealing/extension).
Gene target quantities obtained by RT-PCR are normalized using either the expression level of GAPDH, a gene whose expression is constant, or by quantifying total RNA using RiboGreen (trademark) (Molecular Probes, Inc. Eugene, Oreg.). GAPDH expression is quantified by RT-PCR, by being run simultaneously with the target, multiplexing, or separately. Total RNA is quantified using RiboGreen (trademark) RNA quantification reagent (Molecular Probes, Inc. Eugene, Oreg.). Methods of RNA quantification by RiboGreen (trademark) are taught in Jones et al., 1998.
Probes and primers to human IGF-IR were designed to hybridize to the IGF-IR nucleotide sequence, using published sequence information (GenBank accession number NM000875 (SEQ ID NO:76) or M69229 (SEQ ID NO:77) which is the 5′ untranslated of the IGF-IR gene sequence (see FIG. 6).
In accordance with the present invention, a series of antisense compounds were designed to target different regions of the human IGF-IR mRNA or the 5′ untranslated region, using published sequences set forth in NM000875 (SEQ ID NO:77) and M69229 (SEQ ID NO:76). […]

| Substance | %INHIB (human IGF-IR mRNA levels) [%] |
| --- | --- |
| 175328 (antisense GGTAAACAAGAGCCCCAGCC; listed as DNA, chemistry not fully specified) [compound 175328] | 64 |
| 323695 (antisense CCTTTTATTTGGGATGAAAT; listed as DNA, chemistry not fully specified) [compound 323695] | 50 |
| 323696 (antisense CCAGACTTCATTCCTTTTAT; listed as DNA, chemistry not fully specified) [compound 323696] | 44 |
| 323697 (antisense TGATAGTCGTTGCGGATGTC; listed as DNA, chemistry not fully specified) [compound 323697] | 73 |
| 323698 (antisense GCTGCTGATAGTCGTTGCGG; listed as DNA, chemistry not fully specified) [compound 323698] | 72 |
| 323699 (antisense CTTCAGCTGCTGATAGTCGT; listed as DNA, chemistry not fully specified) [compound 323699] | 74 |
| 323700 (antisense CCCTCGATCACCGTGCAGTT; listed as DNA, chemistry not fully specified) [compound 323700] | 56 |
| 323701 (antisense TTGGAGATGAGCAGGATGTG; listed as DNA, chemistry not fully specified) [compound 323701] | 65 |
| 323702 (antisense CGGCCTTGGAGATGAGCAGG; listed as DNA, chemistry not fully specified) [compound 323702] | 66 |
| 323703 (antisense GTCCTCGGCCTTGGAGATGA; listed as DNA, chemistry not fully specified) [compound 323703] | 71 |
| 323704 (antisense CGGTAGTCCTCGGCCTTGGA; listed as DNA, chemistry not fully specified) [compound 323704] | 71 |
| 323705 (antisense TTGTAGAAGAGTTTCCAGCC; listed as DNA, chemistry not fully specified) [compound 323705] | 52 |
| 323706 (antisense TGGTCATCTCGAAGATGACC; listed as DNA, chemistry not fully specified) [compound 323706] | 5 |
| 323707 (antisense GAGATTGGTCATCTCGAAGA; listed as DNA, chemistry not fully specified) [compound 323707] | 20 |
| 323708 (antisense TCCTTGAGATTGGTCATCTC; listed as DNA, chemistry not fully specified) [compound 323708] | 41 |
| 323709 (antisense CAATATCCTTGAGATTGGTC; listed as DNA, chemistry not fully specified) [compound 323709] | 29 |
| 323710 (antisense AAGCCCAATATCCTTGAGAT; listed as DNA, chemistry not fully specified) [compound 323710] | 43 |
| 323711 (antisense CCCCCGAGTAATGTTCCTCA; listed as DNA, chemistry not fully specified) [compound 323711] | 41 |
| 323712 (antisense TCTCAATCCTGATGGCCCCC; listed as DNA, chemistry not fully specified) [compound 323712] | 56 |

| Substance | %INHIB (human IGF-IR mRNA levels) [%] |
| --- | --- |
| 323713 (antisense GTTATTGGACACCGCATCCA; listed as DNA, chemistry not fully specified) [compound 323713] | 31 |
| 323714 (antisense ATGTAGTTATTGGACACCGC; listed as DNA, chemistry not fully specified) [compound 323714] | 64 |
| 323715 (antisense CCACAATGTAGTTATTGGAC; listed as DNA, chemistry not fully specified) [compound 323715] | 65 |
| 323716 (antisense CACAGGTCCCCACATTCCTT; listed as DNA, chemistry not fully specified) [compound 323716] | 42 |
| 323717 (antisense CTGGACACAGGTCCCCACAT; listed as DNA, chemistry not fully specified) [compound 323717] | 45 |
| 323718 (antisense ATGGTGGTCTTCTCACACAT; listed as DNA, chemistry not fully specified) [compound 323718] | 69 |
| 323719 (antisense TGTTGATGGTGGTCTTCTCA; listed as DNA, chemistry not fully specified) [compound 323719] | 66 |
| 323720 (antisense CTCATTGTTGATGGTGGTCT; listed as DNA, chemistry not fully specified) [compound 323720] | 81 |
| 323721 (antisense GTTGTACTCATTGTTGATGG; listed as DNA, chemistry not fully specified) [compound 323721] | 73 |
| 323722 (antisense CGGTAGTTGTACTCATTGTT; listed as DNA, chemistry not fully specified) [compound 323722] | 71 |
| 323723 (antisense AGCAGCGGTAGTTGTACTCA; listed as DNA, chemistry not fully specified) [compound 323723] | 70 |
| 323724 (antisense GGTCCAGCAGCGGTAGTTGT; listed as DNA, chemistry not fully specified) [compound 323724] | 60 |
| 323725 (antisense TTTGTGGTCCAGCAGCGGTA; listed as DNA, chemistry not fully specified) [compound 323725] | 67 |
| 323726 (antisense TGGGCACATTTTCTGGCAGC; listed as DNA, chemistry not fully specified) [compound 323726] | 57 |
| 323727 (antisense GGAGTAATTCCCTTCTAGCT; listed as DNA, chemistry not fully specified) [compound 323727] | 21 |
| 323728 (antisense TCCCACAGTTGCTGCAAGTT; listed as DNA, chemistry not fully specified) [compound 323728] | 73 |
| 323729 (antisense ATGTTCCAGCTGTTGGAGCC; listed as DNA, chemistry not fully specified) [compound 323729] | 72 |
| 323730 (antisense CCACCATGTTCCAGCTGTTG; listed as DNA, chemistry not fully specified) [compound 323730] | 78 |
| 323731 (antisense GTCCAGGGCTTCAGCCCATG; listed as DNA, chemistry not fully specified) [compound 323731] | 74 |
